Data as given in PubChem BioAssay AID624438 (The Scripps Research Institute Molecular Screening Center, 2012).
Calls of active or inactive are those of the source.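 The calls were made as follows: active = IC50 below 50 µM against the phosphatase PP2C-alpha; inactive = IC50 at or above 50 µM.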

Target: Protein phosphatase 1A (Homo sapiens) (UniProt P35813)
Assay: PP2C-alpha phosphatase inhibitors, late-stage follow-up, selectivity assay for PP5 inhibitor project, biochemical, fluorescence, OMFP substrate, round 5 (AID 624438)
Conditions: purified MBP-PP2C-alpha, OMFP dephosphorylation fluorescence

Protein phosphatase 1A (Homo sapiens), sequence (P35813 whole entry, looked up): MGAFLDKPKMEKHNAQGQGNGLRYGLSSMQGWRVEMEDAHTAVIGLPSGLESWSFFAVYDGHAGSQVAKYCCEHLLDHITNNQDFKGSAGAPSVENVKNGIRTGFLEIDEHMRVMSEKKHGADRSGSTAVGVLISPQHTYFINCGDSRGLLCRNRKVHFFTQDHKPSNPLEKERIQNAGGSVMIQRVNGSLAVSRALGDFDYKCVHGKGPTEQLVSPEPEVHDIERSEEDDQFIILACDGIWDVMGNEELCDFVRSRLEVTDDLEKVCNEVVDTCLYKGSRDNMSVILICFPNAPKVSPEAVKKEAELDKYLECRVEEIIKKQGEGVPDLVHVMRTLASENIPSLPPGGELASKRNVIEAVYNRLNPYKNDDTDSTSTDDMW

`CC(C)Oc1ccccc1-c1n[nH]nc1C(=O)O` was tested, and the IC50 was > 1000 µM (inactive).
